Source: EP1206258B1, “COMPOSITIONS CONTAINING ESTERS FOR TREATING PARASITIC INFESTATIONS OF ORGANISMS” (priority 1999, dated 2001)

Assays:
Rabbit = conditions: Dermal, FRMM; cited from earlier work
Acarus siro = assay: residual filter paper bioassay on Acarus siro (Table 2a)
Protocol: The effect of trans-cinnamic acid ethyl ester on the mite Acarus siro was investigated using a residual filter paper bioassay. Seven samples of 0.01g of mite culture was placed on 7, 90mm Whatman™ filter papers. Each paper was previously treated with 745µl of a solution containing trans-cinnamic acid ethyl ester at concentrations varying from 74.64µl to 7.64 x 10^-4 µl/petri dish respectively and allowed to dry for 15 minutes. The controls were treated in the same way except ethanol (HPLC grade) was used as this was sample dilutant. Percentage control was calculated as in W.S. Abbot, A Method of Computing the Effectiveness of an Insecticide, Journal of Economic Entomology (1925) 18, 265-267.

eggs of L.sericata = assay: in vitro test on hatching of eggs of L.sericata (immersion); design: species or system Lucilia sericata; conditions: V/V in 2.0% W/V aqueous lecithin
Protocol: A series of in vitro tests were carried out to investigate the effects of the compound trans-cinnamic acid ethyl ester on the hatching of eggs of L.sericata.
A blowfly culture originating from the Central Veterinary Laboratory based in Weybridge, Surrey was used for the tests. None of the original adults had previously been exposed or resistant to insecticides. Eggs aged 10±2 hours of the blowfly were harvested on pig's liver in clusters using a prolene 4/0 paintbrush and examined under the binocular microscope for suitablility. Adult females used to produce these eggs were kept at 20°C, rh 70±5%, with a photoperiod of 8 hours. Groups of 30 eggs were then immediately transferred to a 9-cm Whatman filter paper in a 9-cm plastic petri dish. Two ml of cinnamic acid ethyl ester at concentrations in the range 1.0%; 2.5%; 5.0%; 7.5% and 10.0% V/V was poured gently into the petri dish immersing the eggs. Each concentration was previously prepared by dilution of active compound in a 2.0% W/V aqueous lecithin solution pre-warmed to 20°C. The mixture was sonicated for two minutes. After an exposure time of 1 minute, the test solution was carefully poured off and the eggs recovered individually to a 7ml polythene container in which a filter paper was saturated with pig's liver washings. […] Eggs following treatment were incubated at 25°C, rh 70±2% with a photoperiod of 8 hours duration. Hatching typically occurred within 12 hours of treatment.
Each concentration was replicated twice; controls were treated using only lecithin solution. The whole experiment was repeated using two further exposure times of 30 minutes and 90 minutes respectively.
The data were analysed using fitted curve graphical analysis. […] The data gathered from the experiment with an exposure time of 1 minute was also expressed using the probit transformation.
Fitted curves were used to calculate the concentration required to kill 50% of the eggs, (LC50) using the data obtained after immersing the eggs in solutions ranging from 1.0% to 10.0% V/V. The median lethal concentrations, (LC50) and LC95 concentrations are shown in Table 4 below:- Table 4

mealworms, T.molibr = assay: filter paper treatment of mealworms; conditions: 5 mealworms
Source text: Additionally, it was also noted that Ethyl cinnamate is toxic to insects, at least mealworms, T.molibr. […] 5 mealworms were placed onto each filter paper treatment. Although all were of the same instar, the 10-1 individuals were slightly larger. […] 10-7 did die. Therefore, the size of larvae appears to be important.

human volunteers = conditions: 24 hour closed-patch test, 25 human volunteers (Kligman 1973); cited from earlier work
Fusarium culmorum = assay: growth inhibition test on SAB agar, F. culmorum; format: cell-based
Protocol: The antifungal activity of ethyl trans-cinnamate against a number of different fungi was investigated by means of in a simple growth inhibition test.
The following quantities of Ethyl trans-Cinnamate were added to Sabourand Dextrose agar (SAB); 50 ml L^-1, 4ml L^-1, 2ml L^-1, 1ml L^-1, 400 µl L^-1, 200 µl L^-1 and 40 µl L^-1. […] These were then autoclaved and poured into standard Petri dishes. […] Duplicate plates of each concentration, plus control plates containing only SAB Agar, where then separately inoculated with, four different species of fungi, these were Aspergillus nidulans, Penicillium digitatum, Rhizopus arrhizus and Fusarium culmorum. Inoculation was carried out using a single stab at the centre of each Petri dish. The plates were then incubated at 30°C for 6 days and daily measurements of mycobial growth where taken every 24 hours.

[1] = Lethal Concentrations at 1 minute
[2] = Lethal Concentrations at 30 minutes

CCOC(=O)/C=C/c1ccccc1 [trans-cinnamic acid ethyl ester]
LDSO (Rabbit): >5000 mg·kg
percentage control figure (Acarus siro; 7.64µl/petri dish): 100%
Mean Percentage Mortality Over Control (Acarus siro; Concentration (µl) 3.20): 95.57
Mean Percentage Mortality Over Control (Acarus siro; Concentration (µl) 3.20 x 10^1): 100.00
Mean Percentage Mortality Over Control (Acarus siro; Concentration (µl) 3.20 x 10^-1): 97.74
Mean Percentage Mortality Over Control (Acarus siro; Concentration (µl) 3.20 x 10^-2): 69.51
Mean Percentage Mortality Over Control (Acarus siro; Concentration (µl) 3.20 x 10^-3): 32.95
Mean Percentage Mortality Over Control (Acarus siro; Concentration (µl) 3.20 x 10^-4): 6.33
LC50 (eggs of L.sericata; [1]): LC50 2.76%
LC95 (eggs of L.sericata; [1]): LC95>7.50%
LC50 (eggs of L.sericata; [2]): LC50 1.78%
LC95 (eggs of L.sericata; [2]): LC95>5.00%
LC50 (eggs of L.sericata; Lethal Concentrations at 90 minutes): LC50 0.36%
death of mealworms (mealworms, T.molibr; concentration 10-1, slightly larger individuals, moulted after two days): did not die
death of mealworms (mealworms, T.molibr; concentration printed 10-7): did die
sensitization (human volunteers): no sensitization
Level of Radial Growth (mm) of F. culmorum (Fusarium culmorum; 1ml L^-1, Day 1): 0 mm
Level of Radial Growth (mm) of F. culmorum (Fusarium culmorum; 1ml L^-1, Day 2): 0 mm
Level of Radial Growth (mm) of F. culmorum (Fusarium culmorum; 1ml L^-1, Day 3): 0 mm
Level of Radial Growth (mm) of F. culmorum (Fusarium culmorum; 1ml L^-1, Day 4): 0 mm
Level of Radial Growth (mm) of F. culmorum (Fusarium culmorum; 1ml L^-1, Day 5): 0 mm
Level of Radial Growth (mm) of F. culmorum (Fusarium culmorum; 1ml L^-1, Day 6): 0 mm
Level of Radial Growth (mm) of F. culmorum (Fusarium culmorum; 2ml L^-1, Day 1): 0 mm
Level of Radial Growth (mm) of F. culmorum (Fusarium culmorum; 2ml L^-1, Day 2): 0 mm
Level of Radial Growth (mm) of F. culmorum (Fusarium culmorum; 2ml L^-1, Day 3): 0 mm
Level of Radial Growth (mm) of F. culmorum (Fusarium culmorum; 2ml L^-1, Day 4): 0 mm
Level of Radial Growth (mm) of F. culmorum (Fusarium culmorum; 2ml L^-1, Day 5): 0 mm
Level of Radial Growth (mm) of F. culmorum (Fusarium culmorum; 2ml L^-1, Day 6): 0 mm
Level of Radial Growth (mm) of F. culmorum (Fusarium culmorum; 4ml L^-1, Day 1): 0 mm
Level of Radial Growth (mm) of F. culmorum (Fusarium culmorum; 4ml L^-1, Day 2): 0 mm
Level of Radial Growth (mm) of F. culmorum (Fusarium culmorum; 4ml L^-1, Day 3): 0 mm
Level of Radial Growth (mm) of F. culmorum (Fusarium culmorum; 4ml L^-1, Day 4): 0 mm
Level of Radial Growth (mm) of F. culmorum (Fusarium culmorum; 4ml L^-1, Day 5): 0 mm
Level of Radial Growth (mm) of F. culmorum (Fusarium culmorum; 4ml L^-1, Day 6): 0 mm
Level of Radial Growth (mm) of F. culmorum (Fusarium culmorum; 40µl L^-1, Day 1): 0 mm
Level of Radial Growth (mm) of F. culmorum (Fusarium culmorum; 40µl L^-1, Day 2): 0 mm
Level of Radial Growth (mm) of F. culmorum (Fusarium culmorum; 40µl L^-1, Day 3): 1 mm
Level of Radial Growth (mm) of F. culmorum (Fusarium culmorum; 40µl L^-1, Day 4): 1 mm
Level of Radial Growth (mm) of F. culmorum (Fusarium culmorum; 40µl L^-1, Day 5): 2 mm
Level of Radial Growth (mm) of F. culmorum (Fusarium culmorum; 40µl L^-1, Day 6): 6 mm
duration of complete inhibition of growth (Fusarium culmorum; 50ml L-^1 and higher doses, further experiments, data not shown): at least 8 days
inhibition of growth (Fusarium culmorum; 50ml L-^1 level): complete inhibition of growth
Level of Radial Growth (mm) of F. culmorum (Fusarium culmorum; 50 ml L^-1, Day 1): 0 mm
Level of Radial Growth (mm) of F. culmorum (Fusarium culmorum; 50 ml L^-1, Day 2): 0 mm
Level of Radial Growth (mm) of F. culmorum (Fusarium culmorum; 50 ml L^-1, Day 3): 0 mm
Level of Radial Growth (mm) of F. culmorum (Fusarium culmorum; 50 ml L^-1, Day 4): 0 mm
Level of Radial Growth (mm) of F. culmorum (Fusarium culmorum; 50 ml L^-1, Day 5): 0 mm
Level of Radial Growth (mm) of F. culmorum (Fusarium culmorum; 50 ml L^-1, Day 6): 0 mm
Level of Radial Growth (mm) of F. culmorum (Fusarium culmorum; 200µl L^-1, Day 1): 0 mm
Level of Radial Growth (mm) of F. culmorum (Fusarium culmorum; 200µl L^-1, Day 2): 0 mm
Level of Radial Growth (mm) of F. culmorum (Fusarium culmorum; 200µl L^-1, Day 3): 0 mm
Level of Radial Growth (mm) of F. culmorum (Fusarium culmorum; 200µl L^-1, Day 4): 1 mm
Level of Radial Growth (mm) of F. culmorum (Fusarium culmorum; 200µl L^-1, Day 5): 2 mm
Level of Radial Growth (mm) of F. culmorum (Fusarium culmorum; 200µl L^-1, Day 6): 6 mm
Level of Radial Growth (mm) of F. culmorum (Fusarium culmorum; 400µl L^-1, Day 1): 0 mm
Level of Radial Growth (mm) of F. culmorum (Fusarium culmorum; 400µl L^-1, Day 2): 0 mm
Level of Radial Growth (mm) of F. culmorum (Fusarium culmorum; 400µl L^-1, Day 3): 0 mm
Level of Radial Growth (mm) of F. culmorum (Fusarium culmorum; 400µl L^-1, Day 4): 1 mm
Level of Radial Growth (mm) of F. culmorum (Fusarium culmorum; 400µl L^-1, Day 5): 2 mm
Level of Radial Growth (mm) of F. culmorum (Fusarium culmorum; 400µl L^-1, Day 6): 6 mm
